Measured values reported in PMC3518590 (Journal of inorganic biochemistry, 2012).
Entries after “also recorded” stand apart in the source; their conditions may differ. Read-outs that look alike come from different tables or passages of the source.

Legend:
[1] = buffer; cited from earlier work
[2] = molecular target: ALDH peptide A286-R307 (AIDWIAAGIFYLNSGQNCTANSR) (Saccharomyces cerevisiae, UniProt P47771); test: LC-MS reactivity with ALDH peptide A286-R307
[3] = system: Yeast ALDH (E.C. 1.2.1.5); test: In vitro inhibition of yeast ALDH; assay type: biochemical; details: for time to complete inhibition of ALDH: inhibitor at ten-fold the IC50; for IC50: read-out: ALDH inhibition IC50, 37 °C preincubation
[4] = system: Yeast ALDH (E.C. 1.2.1.5); test: In vitro reactivation of inhibited yeast ALDH by DTT; assay type: biochemical; details: inhibitor at ten-times IC50, DTT 10 mM
[5] = system: Yeast ALDH (E.C. 1.2.1.5); details: read-out: ALDH inhibition, reported IC50; ref [24], [25]; cited from earlier work
[6] = buffer, pH 7.4
oxymyoglobin (MbO2) = oxymyoglobin (MbO2) (Equus caballus, UniProt P68082); test: UV-vis assay of metMb formation from MbO2; assay type: biochemical
[7] = UV-Vis spectroscopy assay for decomposition in buffer; details: no PLE
[8] = Water solubility in buffer; assay type: physicochemical
[9] = 10 eq. reagent, peptide 10 μM, no PLE, room temperature

Sequence of UniProt P47771 (P47771 286-307): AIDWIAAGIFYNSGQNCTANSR
Sequence of oxymyoglobin (MbO2) (P68082 whole entry): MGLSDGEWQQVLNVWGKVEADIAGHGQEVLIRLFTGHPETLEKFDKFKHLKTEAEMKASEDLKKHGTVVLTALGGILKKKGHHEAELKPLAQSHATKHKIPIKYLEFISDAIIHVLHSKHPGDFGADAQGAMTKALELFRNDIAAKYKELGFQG

Row | Molecule | decomposition t1/2 (comparison value) [1] | Product(s) of reaction with ALDH peptide [2, 9] | time to complete inhibition of ALDH [3] | IC50 ([3]; absence of PLE) | ALDH enzyme activity restored by DTT ([4]; no PLE) | IC50 [5] | further results
1 | CC(C)(C)C(=O)OC1(N=O)CCCCC1 [compound 2] | 37.8 h | – | – | – | – | – | –
2 | CC(=O)OC1(N=O)CCCCC1 [compound 1] | 14.8 h | – | – | – | – | – | –
3 | [Na+].[Na+].[O-][N+]([O-])=NO [AS, Angeli’s salt (NaN2O3, AS)] | – | sulfinamide-minor; also recorded: dhA -major | ≤ 10 min | 2100 nM | 46% | 1800 nM | Product(s) of reaction with ALDH peptide ([2]; 1000 eq. reagent): sulfinamide
4 | O=Nc1ccccc1 [NB, Nitrosobenzene] | – | N-phenyl sulfinamide | ≤ 10 min | 200 nM | 15% | 2500 nM | –
5 | 4-Nitrosotetrahydro-2H-pyran-4-yl Pivalate [compound 5] | – | RSSR | – | 3300 nM | 63% | – | decomposition t1/2 [6]: 32 h; rate constant of MbO2 conversion to metMb (oxymyoglobin (MbO2); MbO2 42 μM, compound 84 μM, PLE 9 U/μmol, PBS pH 7.4, 37 °C): 0.0003 s⁻¹; reaction with MbO2 (absorption spectra) (oxymyoglobin (MbO2); absence of PLE): no change in the absorption spectra; decomposition rate constant k ([7]; 3 % mixture of DMF:PBS (100 mM, pH 7.4), 37 °C): 6e-06 s⁻¹; Product(s) of reaction with ALDH peptide ([2]; 10 eq. reagent + PLE (9 U/μmol), room temperature): RSSR and sulfinamide; IC50 ([3]; presence of PLE (9 U/μmol)): 3500 nM; ALDH enzyme activity restored by DTT ([4]; in the presence of PLE): 43%
6 | CC(=O)OC1(N=O)CCOCC1 [compound 4, 4-Nitrosotetrahydro-2H-pyran-4-yl Acetate] | – | – | – | – | – | – | decomposition rate constant k ([7]; buffered conditions, PBS 100 mM pH 7.4, 37 °C): 3e-05 s⁻¹; solubility [8]: 1700 µM
